Reference: US7157430B2, “(Substituted)acyl dipeptidyl inhibitors of the ICE/CED-3 family of cysteine proteases” (Idun Pharmaceuticals, Inc., priority 1998, dated 2007)
Like-named read-outs stand apart in the source and are kept apart here. Where a SMILES comes first, the peptide text is derived from it. The star is where a group is joined. Cbz = O=C(OCc1ccccc1)*; CH2F = FC*

Assays:
Assay type in all cases: biochemical
MCH-3 = molecular target: T1, MCH-3 (Homo sapiens, UniProt P55210); test: Fluorescence enzyme assay, IC50 determination, Mch3
T1 sequence (P55210 24-198 limits assumed): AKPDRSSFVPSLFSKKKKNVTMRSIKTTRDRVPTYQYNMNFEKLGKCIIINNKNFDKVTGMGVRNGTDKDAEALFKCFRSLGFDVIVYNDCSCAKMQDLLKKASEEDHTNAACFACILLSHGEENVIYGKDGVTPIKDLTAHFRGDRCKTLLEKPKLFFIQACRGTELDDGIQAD
T1 sequence (P55210 207-303 limits assumed): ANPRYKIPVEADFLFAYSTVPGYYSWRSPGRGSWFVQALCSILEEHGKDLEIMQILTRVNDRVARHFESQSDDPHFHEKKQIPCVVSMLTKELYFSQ
Protocol: (§1) Fluorescence enzyme assays detecting the activity of the compounds of Formula 1 utilizing the recombinant ICE and CPP32 enzymes are performed essentially according to Thornberry et al. (Nature, 356:768:774 (1992)) and Nicholson et al. (Nature, 376:37–43 (1995)) respectively, (herein incorporated by reference) in 96 well microtiter plates. The substrate is Acetyl-Tyr-Val-Ala-Asp-amino-4-methylcoumarin (AMC) for the ICE assay and Acetyl-Asp-Glu-Val-Asp-amino-4-methylcoumarin for the CPP32, Mch2, Mch3 and Mch5 assays. Enzyme reactions are run in ICE buffer (25 mM HEPES, 1 mM EDTA, 0.1% CHAPS, 10% sucrose, pH 7.5) containing 2 mM DTT at room temperature in duplicate.
(§2) The enzyme and the compound of Formula I to be assayed are allowed to preincubate in the microtitre plate wells for 30 minutes at room temperature prior to the addition of substrate to initiate the reaction. Fluorescent AMC product formation is monitored for one hour at room temperature by measuring the fluorescence emission at 460 nm using an excitation wavelength of 360 nm. The fluorescence change in duplicate (control) wells are averaged and the mean values are plotted as a function of inhibitor concentration to determine the inhibitor concentration producing 50% inhibition (IC50). The results of this assay are set forth below in Table 1 and in Table 3 (for Table 3, see Examples 11 through 52).
(§3) The reference compound for this assay was Cbz-ValAlaAsp-H and the values are denoted in Table 1 as “Reference”.

MCH-2 [1] = molecular target: T2, MCH-2 (Homo sapiens, UniProt P55212); test: Fluorescence enzyme assay, IC50 determination, Mch2
T2 sequence (P55212 24-179 limits assumed): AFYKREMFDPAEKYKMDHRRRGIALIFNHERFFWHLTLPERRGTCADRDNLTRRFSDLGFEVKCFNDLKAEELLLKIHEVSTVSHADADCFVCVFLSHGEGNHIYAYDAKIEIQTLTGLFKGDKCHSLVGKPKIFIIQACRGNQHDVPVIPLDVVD
T2 sequence (P55212 194-293 limits assumed): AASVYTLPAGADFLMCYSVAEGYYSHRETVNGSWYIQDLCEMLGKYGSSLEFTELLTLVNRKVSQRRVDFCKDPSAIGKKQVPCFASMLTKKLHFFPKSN
Protocol: as §1, §2, §3

CPP32 [2] = molecular target: T3, CPP32 (Homo sapiens, UniProt P42574); test: Fluorescence enzyme assay, IC50 determination, CPP32
T3 sequence (P42574 29-175 limits assumed): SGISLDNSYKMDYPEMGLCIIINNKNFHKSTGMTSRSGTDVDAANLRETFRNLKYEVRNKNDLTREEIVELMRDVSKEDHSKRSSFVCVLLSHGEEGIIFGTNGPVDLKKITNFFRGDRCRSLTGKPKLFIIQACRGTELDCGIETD
T3 sequence (P42574 176-277 limits assumed): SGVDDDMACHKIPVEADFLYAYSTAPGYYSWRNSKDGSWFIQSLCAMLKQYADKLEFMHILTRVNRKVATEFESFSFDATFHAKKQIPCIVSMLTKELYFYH
Protocol: as §1, §2, §3

MCH-5 [3] = molecular target: T4, MCH-5 (Homo sapiens, UniProt Q14790); test: Fluorescence enzyme assay, IC50 determination, Mch5
T4 sequence (Q14790 217-374 limits assumed, species assumed): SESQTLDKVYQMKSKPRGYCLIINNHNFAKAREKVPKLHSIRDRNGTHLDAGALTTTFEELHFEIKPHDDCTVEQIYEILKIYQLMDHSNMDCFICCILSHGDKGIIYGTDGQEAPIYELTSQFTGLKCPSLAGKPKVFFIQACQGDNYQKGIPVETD
T4 sequence (Q14790 385-479 limits assumed, species assumed): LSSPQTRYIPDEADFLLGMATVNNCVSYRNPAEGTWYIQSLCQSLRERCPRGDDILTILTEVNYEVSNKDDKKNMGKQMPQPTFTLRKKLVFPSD
Protocol: as §1, §2, §3

MCH-5 [4] = molecular target: T4, MCH-5; test: Dissociation constant Ki and irreversible rate constant k3 for irreversible inhibitors, Mch5; conditions: continuous assay 60 min, reaction initiated by adding enzyme
CPP32 [5] = molecular target: T3, CPP32; test: Dissociation constant Ki and irreversible rate constant k3 for irreversible inhibitors, CPP32; conditions: continuous assay 60 min, reaction initiated by adding enzyme
mICE = molecular target: T5, mICE (Mus musculus, UniProt P29452); test: Dissociation constant Ki and irreversible rate constant k3 for irreversible inhibitors, ICE; conditions: continuous assay 60 min, reaction initiated by adding enzyme
T5 sequence (P29452 123-296 limits assumed): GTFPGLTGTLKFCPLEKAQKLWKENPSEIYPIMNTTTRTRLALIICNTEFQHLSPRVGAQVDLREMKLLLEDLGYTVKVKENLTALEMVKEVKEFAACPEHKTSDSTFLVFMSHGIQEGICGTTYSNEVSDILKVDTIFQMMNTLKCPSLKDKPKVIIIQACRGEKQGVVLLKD
T5 sequence (P29452 315-402 limits assumed): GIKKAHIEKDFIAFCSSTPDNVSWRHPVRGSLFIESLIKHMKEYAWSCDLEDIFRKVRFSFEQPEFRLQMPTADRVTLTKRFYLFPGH

MCH-2 [6] = molecular target: T2, MCH-2; test: Dissociation constant Ki and irreversible rate constant k3 for irreversible inhibitors, Mch2; conditions: continuous assay 60 min, reaction initiated by adding enzyme
[7] = Ac-DEVD-AMC substrate, 30 min preincubation, room temperature, read-out: MCH-3 IC50
[8] = Ac-DEVD-AMC substrate, 30 min preincubation, room temperature, read-out: MCH-2 IC50
[9] = recombinant enzyme, Ac-DEVD-AMC substrate, 30 min preincubation, room temperature, read-out: CPP32 IC50
[10] = Ac-DEVD-AMC substrate, 30 min preincubation, room temperature, read-out: MCH-5 IC50

Compound	IC50 (MCH-3; [7]) [nM]	IC50 (MCH-2 [1]; [8]) [nM]	IC50 (CPP32 [2]; [9]) [nM]	IC50 (MCH-5 [3]; [10]) [nM]	IC50 (MCH-3; Table 3, method of Preparation 3A, read-out: MCH3 I50) [nM]	IC50 (MCH-2 [1]; Table 3, method of Preparation 3A, read-out: MCH2 I50) [nM]	IC50 (CPP32 [2]; Table 3, method of Preparation 3A, read-out: CPP32 I50) [nM]	IC50 (MCH-5 [3]; Table 3, method of Preparation 3A, read-out: MCH5 I50) [nM]	Ki (MCH-5 [4]) [nM]	MCH-5 k3/Ki (MCH-5 [4])	CPP32 k3/Ki (CPP32 [5])	Ki (CPP32 [5]) [nM]	Ki (mICE) [nM]	mICE k3/Ki (mICE)	Ki (MCH-2 [6]) [nM]	MCH-2 k3/Ki (MCH-2 [6])
CC(C)C[C@H](NC(=O)C(C)Nc1cccc2ccccc12)C(=O)N[C@H](C=O)CC(=O)O (mixture of isomers) [Example 9, (3S,2′RS)-3-[N-(2′-(1-Naphthylamino)Propionyl)Leucinyl]Amino-4-Oxobutanoic Acid]	7240	310	512	17												
CC(C)C[C@H](NC(=O)[C@H](CCC(=O)O)Oc1cccc2ccccc12)C(=O)N[C@H](C=O)CC(=O)O [Example 3, (3S,2′S)-3-[N-((2′-(1-Naphthyloxy)-4′-Carboxy)Butyryl)Leucinyl]Amino-4-Oxobutanoic Acid]	587	15	21	12												
CC(C)C[C@H](NC(=O)[C@@H](CCC(=O)O)Oc1cccc2ccccc12)C(=O)N[C@H](C=O)CC(=O)O [Example 4, (3S,2′R)-3-[N-((2′-(1-Naphthyloxy)-4′-Carboxy)Butyryl)Leucinyl]Amino-4-Oxobutanoic Acid]	130	3.5	3.8	31												
CC(C)C[C@H](NC(=O)C(C)Oc1cccc2ccccc12)C(=O)N[C@H](C=O)CC(=O)O (stereo partly shown) [Example 14]					1320	1280	376	2430								
CC(C)[C@H](NC(=O)CCOc1cccc2ccccc12)C(=O)N[C@@H](CC(=O)O)C(=O)COc1cc(C(F)(F)F)n(-c2ccccc2)n1 [Example 159]									10700	86 M⁻¹ s⁻¹	11,700 M^−1s^−1	1180	1370	4,580 M^−1s^−1	113	15,000 M^−1s^−1
CC(C)[C@H](NC(=O)CCOc1ccccc1)C(=O)N[C@@H](CC(=O)O)C(=O)COc1c(F)c(F)cc(F)c1F [Example 160, (3S)-3-[N-(3′-(Phenoxy)Propionyl)Valinyl]Amino-5-(2,3,5,6-Tetrafluorophenoxy)-4-Oxopentanoic Acid]									351	3,680 M^−1s^−1	33,000 M^−1s^−1	132	1180	11,400 M^−1s^−1	93	36,600 M^−1s^−1
CC(C)C[C@H](NC(=O)COc1ccccc1-c1ccccc1)C(=O)N[C@@H](CC(=O)O)C(=O)COP(=O)(c1ccccc1)c1ccccc1 [Example 161]									105	15,200 M^−1s^−1	319,000 M^−1s^−1	19	98	86,400 M^−1s^−1	30	149,000 M^−1s^−1

The remaining lines, values ahead:

IC50 (MCH-3; [7]) [nM]	IC50 (MCH-2 [1]; [8]) [nM]	IC50 (CPP32 [2]; [9]) [nM]	IC50 (MCH-5 [3]; [10]) [nM]	IC50 (MCH-3; Table 3, method of Preparation 3A, read-out: MCH3 I50) [nM]	IC50 (MCH-2 [1]; Table 3, method of Preparation 3A, read-out: MCH2 I50) [nM]	IC50 (CPP32 [2]; Table 3, method of Preparation 3A, read-out: CPP32 I50) [nM]	IC50 (MCH-5 [3]; Table 3, method of Preparation 3A, read-out: MCH5 I50) [nM]	Ki (MCH-5 [4]) [nM]	MCH-5 k3/Ki (MCH-5 [4])	CPP32 k3/Ki (CPP32 [5])	Ki (CPP32 [5]) [nM]	Ki (mICE) [nM]	mICE k3/Ki (mICE)	Ki (MCH-2 [6]) [nM]	MCH-2 k3/Ki (MCH-2 [6])	Compound
								128	5,290 M^−1s^−1	246,000 M^−1s^−1	44	319	22,200 M^−1s^−1	29	104,000 M^−1s^−1	CC(C)C[C@H](NC(=O)COc1ccccc1-c1ccccc1)C(=O)N[C@@H](CC(=O)O)C(=O)COC(=O)c1c(Cl)cccc1Cl [Example 162]
								252	7,960 M^−1s^−1	308,000 M^−1s^−1	23	415	37,800 M^−1s^−1	12	110,000 M^−1s^−1	CC(C)C[C@H](NC(=O)COc1ccccc1-c1ccccc1)C(=O)N[C@@H](CC(=O)O)C(=O)COc1c(F)cc(F)cc1F [Example 163]
								223	6,190 M^−1s^−1	137,000 M^−1s^−1	63	467	24,000 M^−1s^−1	23	91,700 M^−1s^−1	CC(C)C[C@H](NC(=O)COc1ccccc1-c1ccccc1)C(=O)N[C@@H](CC(=O)O)C(=O)COc1c(F)c(F)cc(F)c1F [Example 164]
								89	13,100 M^−1s^−1	335,000 M^−1s^−1	20	396	25,500 M^−1s^−1	8	116,000 M^−1s^−1	CC(C)C[C@H](NC(=O)COc1c(C(=O)O)ccc2ccccc12)C(=O)N[C@@H](CC(=O)O)C(=O)COC(=O)c1c(Cl)cccc1Cl [Example 165, (3S)-3-[N-((2′-Carboxy-1′-Naphthyloxy)Acetyl)Leucinyl]-Amino-5-(2′,6′-Dichlorobenzoyloxy)-4-Oxopentanoic Acid]
								28	80,000 M^−1s^−1	317,000 M^−1s^−1	28	42	149,000 M^−1s^−1	11	146,000 M^−1s^−1	CC(C)C[C@H](NC(=O)COc1c(C(=O)O)ccc2ccccc12)C(=O)N[C@@H](CC(=O)O)C(=O)COP(=O)(c1ccccc1)c1ccccc1 [Example 166]
								126	13,600 M^−1s^−1	56,200 M^−1s^−1	89	501	21,300 M^−1s^−1	42	52,500 M^−1s^−1	CC(C)C[C@H](NC(=O)COc1c(C(=O)O)ccc2ccccc12)C(=O)N[C@@H](CC(=O)O)C(=O)COc1c(F)c(F)cc(F)c1F [Example 167]
								1160	684 M⁻¹ s⁻¹	4,330 M^−1s^−1	3080	480	11,100 M^−1s^−1	1260	1,330 M^−1s^−1	C[C@H](NC(=O)COc1ccc2ccccc2c1)C(=O)NC(CC(=O)O)C(=O)COc1c(F)c(F)cc(F)c1F (stereo partly shown) [Example 176]
								439	4,370 M^−1s^−1	89,700 M^−1s^−1	86	225	45,600 M^−1s^−1	47	21,100 M^−1s^−1	C[C@H](NC(=O)COc1ccccc1-c1ccccc1)C(=O)NC(CC(=O)O)C(=O)COc1c(F)c(F)cc(F)c1F (stereo partly shown) [Example 177]
								18	83,300 M^−1s^−1	12,200 M^−1s^−1	820	15	214,000 M^−1s^−1	594	2,950 M^−1s^−1	CC(NC(=O)C(NC(=O)OCc1ccccc1)C(C)C)C(=O)NC(CC(=O)O)C(=O)CF (stereo not drawn) [refer., Cbz-ValAlaAsp-CH2F, reference compound] (Cbz-Val-Ala-Asp-CH2F; configuration not given here)
